The values below come from patent publication US8389527B2, “Substituted imidazopyridazines useful as kinase inhibitors” (Bristol-Myers Squibb Company, priority 2008, dated 2013).

Bounds are passed on as bounds.

In one test the target is T1, recombinant CK2A2 (Homo sapiens, UniProt P19784).
T1 construct: purchased Upstate Biotechnology
Kind of test: CK2 kinase assay (CK2A2), [γ-33P]ATP filter-binding. It is filed as biochemical. The method, then: (§1) The effectiveness of compounds of the present invention as inhibitors of protein kinases can be readily tested by assays known to those skilled in the art. For example, in vitro protein kinase assays may be conducted with a relevant purified protein kinase and an appropriate synthetic substrate to determine the inhibitory activities of the compounds. […] Reaction mixtures were incubated at 30° C. for 1 h, and reaction products were captured by binding to phosphocellulose (P81) filter plates. Incorporation of radioactive phosphate into the peptide substrate was determined by liquid scintillation counting. The potency of compounds in inhibiting CK2 is expressed as IC50, defined as the concentrations of compounds required to inhibit the enzymatic activity by 50%.

A further test concerns HCT116. Kind of test: Cell proliferation inhibition assay (MTT, CellTiter96). It is filed as cell-based. The note with it: Homo sapiens, HCT-116; HCT116 cells, 72 h with compound, MTT readout. As for the experimental part: B. Cell Proliferation Inhibition Assay
Compounds were evaluated for their ability to inhibit cell proliferation, using an assay that measures mitochondrial metabolic activity, that is directly correlated with cell numbers. Cells were plated at 2000 cells/well in 96-well plates and were cultured for 24 h in RPMI-1640 supplemented with 2% fetal bovine serum, before test compounds were added. Compounds were diluted in culture medium such that the final concentration of dimethyl sulfoxide never exceeded 1%. Following the addition of compounds, the cells were cultured for an additional 72 h before cell viability was determined by measuring the conversion of 3-(4,5-dimethylthiazol-2-yl)-2,5-diphenyltetrazolium bromide (MTT) dye using the CellTiter96 kit (Promega).

The target of a further test is T2, recombinant CK2A1 (Homo sapiens, UniProt P68400).
T2 construct: purchased Invitrogen
Kind of test: CK2 kinase assay (CK2A1), [γ-33P]ATP filter-binding. It is filed as biochemical. The method, then:
as §1

Where [1] appears, read: recombinant CK2A2 5 nM, ATP 5 μM, 10 μM peptide substrate, 30° C. 1 h.
Where [2] appears, read: recombinant CK2A1 10 nM, ATP 25 μM, 10 μM peptide substrate, 30° C. 1 h.
Where [3] appears, read: comparison examples of U.S. 2007/038314 (Table 2).

T2 sequence (P68400 whole entry): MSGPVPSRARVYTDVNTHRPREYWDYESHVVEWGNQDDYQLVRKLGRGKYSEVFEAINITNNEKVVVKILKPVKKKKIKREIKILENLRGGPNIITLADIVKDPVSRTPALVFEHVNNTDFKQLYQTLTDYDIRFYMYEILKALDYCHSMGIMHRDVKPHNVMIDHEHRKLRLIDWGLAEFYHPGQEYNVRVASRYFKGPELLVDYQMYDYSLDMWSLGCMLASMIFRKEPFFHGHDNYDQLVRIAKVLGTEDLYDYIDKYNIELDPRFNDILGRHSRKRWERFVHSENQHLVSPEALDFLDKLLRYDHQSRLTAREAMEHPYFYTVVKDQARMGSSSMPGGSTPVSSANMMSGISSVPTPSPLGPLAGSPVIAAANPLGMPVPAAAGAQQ
T1 sequence (P19784 whole entry): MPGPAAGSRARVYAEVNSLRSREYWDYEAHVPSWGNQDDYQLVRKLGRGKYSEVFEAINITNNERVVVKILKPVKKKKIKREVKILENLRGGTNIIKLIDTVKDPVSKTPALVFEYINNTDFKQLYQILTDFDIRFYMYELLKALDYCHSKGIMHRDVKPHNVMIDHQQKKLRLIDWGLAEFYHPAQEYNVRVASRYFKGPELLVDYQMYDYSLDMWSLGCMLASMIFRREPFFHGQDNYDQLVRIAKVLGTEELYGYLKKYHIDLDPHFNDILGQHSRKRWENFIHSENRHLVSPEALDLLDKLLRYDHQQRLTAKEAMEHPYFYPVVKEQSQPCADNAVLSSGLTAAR

For `CC(C)CC(=O)N[C@H]1CC[C@H](Nc2cc(NC3CC3)c3ncc(C(=O)Nc4ccnc(Cl)c4)n3n2)CC1` [Example 164, N-(2-chloro-4-pyridinyl)-8-(cyclopropylamino)-6-((trans-4-((3-methylbutanoyl)amino)cyclohexyl)amino) imidazo[1,2-b]pyridazine-3-carboxamide], the IC50 on recombinant CK2A2 (setting [1]) is 2.1 nM; with HCT116, over 2500 nM; on recombinant CK2A1 (setting [2]) it was 22.8 nM.

For `CC(=O)Nc1cccc(NC(=O)c2cnc3c(NC4CC4)cc(N[C@H]4CC[C@H](N)CC4)nn23)c1` [Example 83, N-(3-acetamidophenyl)-6-((trans)-4-aminocyclohexylamino)-8-(cyclopropylamino)imidazo[1,2-b]pyridazine-3-carboxamide], the figures for the IC50 on recombinant CK2A2 (setting [1]), in the test on HCT116 and on recombinant CK2A1 (setting [2]) were 4390 nM, over 1000 nM and 12300 nM, respectively.

Consider `N[C@H]1CC[C@H](Nc2cc(NC3CC3)c3ncc(C(=O)Nc4ccncc4F)n3n2)CC1` [Example 468, 6-((trans-4-aminocyclohexyl)amino)-8-(cyclopropylamino)-N-(3-fluoro-4-pyridinyl)imidazo [1,2-b]pyridazine-3-carboxamide], for which the IC50 was 3 nM on recombinant CK2A2 (setting [1]), 90 nM in the test on HCT116 and 7 nM on recombinant CK2A1 (setting [2]).

For the molecule `O=C(Nc1ccnc(Cl)c1)c1cnc2c(NC3CC3)cc(N[C@H]3CC[C@H](N(CCO)CCO)CC3)nn12` [Example 534, 6-((trans-4-(bis(2-hydroxyethyl)amino)cyclohexyl)amino)-N-(2-chloro-4-pyridinyl)-8-(cyclopropylamino)imidazo [1,2-b]pyridazine-3-carboxamide], the IC50 was determined as 145 nM on recombinant CK2A2 (setting [1]), 1610 nM in the test on HCT116 and 559 nM on recombinant CK2A1 (setting [2]).

`N[C@H]1CC[C@H](Nc2cc(NC3CCC3)c3ncc(C(=O)Nc4ccncc4F)n3n2)CC1` [Example 469, 6-((trans-4-aminocyclohexyl)amino)-8-(cyclobutylamino)-N-(3-fluoro-4-pyridinyl)imidazo [1,2-b]pyridazine-3-carboxamide]: the IC50 on recombinant CK2A2 (setting [1]) worked out at 5 nM; with HCT116, 50 nM; at recombinant CK2A1 (setting [2]), 19 nM.

As for `O=C(Nc1ccncc1F)c1cnc2c(NC3CC3)cc(N[C@H]3CC[C@H](NCC(O)CO)CC3)nn12` (stereo partly drawn) [Example 524, 8-(cyclopropylamino)-6-((trans-4-((2,3-dihydroxypropyl)amino)cyclohexyl)amino)-N-(3-fluoro-4-pyridinyl)imidazo [1,2-b]pyridazine-3-carboxamide], the values for the IC50 at recombinant CK2A2 (setting [1]), in the test with HCT116 and at recombinant CK2A1 (setting [2]) were 4 nM, 1150 nM and 21 nM, respectively.

As to `C[C@@H](O)CC(=O)N[C@H]1CC[C@H](Nc2cc(NC3CC3)c3ncc(C(=O)Nc4ccnc(Cl)c4)n3n2)CC1` [Example 195, N-(2-chloro-4-pyridinyl)-8-(cyclopropylamino)-6-((trans-4-(((3R)-3-hydroxybutanoyl)amino)cyclohexyl)amino) imidazo[1,2-b]pyridazine-3-carboxamide], the IC50 on recombinant CK2A2 (setting [1]) was found to be 1.7 nM; in the test with HCT116, 220 nM; on recombinant CK2A1 (setting [2]), 17.4 nM.

As for `N[C@@H](C(=O)N[C@H]1CC[C@H](Nc2cc(NC3CC3)c3ncc(C(=O)Nc4ccnc(Cl)c4)n3n2)CC1)c1ccccc1` [Example 172, 6-((trans-4-(((2R)-2-amino-2-phenylacetyl)amino)cyclohexyl)amino)-N-(2-chloro-4-pyridinyl)-8-(cyclopropylamino)imidazo [1,2-b]pyridazine-3-carboxamide], the 50% inhibitory concentration (IC50) was determined as 0.9 nM on recombinant CK2A2 (setting [1]), 360 nM in the test on HCT116 and 37.3 nM at recombinant CK2A1 (setting [2]).

On to `N[C@H]1CC[C@H](Nc2cc(NC3CC3)c3ncc(C(=O)Nc4ccnc(F)c4)n3n2)CC1` [Example 25C, 6-((trans)-4-aminocyclohexylamino)-8-(cyclopropylamino)-N-(2-fluoropyridin-4-yl)imidazo[1,2-b]pyridazine-3-carboxamide], for which the IC50 was 11 nM on recombinant CK2A2 (setting [1]), 170 nM with HCT116 and 86 nM at recombinant CK2A1 (setting [2]).

With `NCC(=O)N[C@H]1CC[C@H](Nc2cc(NC3CC3)c3ncc(C(=O)Nc4ccnc(Cl)c4)n3n2)CC1` [Example 163, N-(2-chloro-4-pyridinyl)-8-(cyclopropylamino)-6-((trans-4-(glycylamino)cyclohexyl)amino)imidazo [1,2-b]pyridazine-3-carboxamide], the half-inhibitory concentration (IC50) at recombinant CK2A2 (setting [1]) is 0.4 nM; in the test with HCT116, 560 nM; at recombinant CK2A1 (setting [2]) it was 29.6 nM.

In the case of `CN(C)[C@H]1CCN(C(=O)N[C@H]2CC[C@H](Nc3cc(NC4CC4)c4ncc(C(=O)Nc5ccnc(Cl)c5)n4n3)CC2)C1` [Example 272, N-(2-chloro-4-pyridinyl)-8-(cyclopropylamino)-6-((trans-4-((((3S)-3-(dimethylamino)-1-pyrrolidinyl)carbonyl)amino)cyclohexyl)amino) imidazo[1,2-b]pyridazine-3-carboxamide], the figures for the IC50 on recombinant CK2A2 (setting [1]), in the test with HCT116 and at recombinant CK2A1 (setting [2]) were 0.8 nM, 400 nM and 1.9 nM, respectively.

With `N[C@H](Cc1cccnc1)C(=O)N[C@H]1CC[C@H](Nc2cc(NC3CC3)c3ncc(C(=O)Nc4ccnc(Cl)c4)n3n2)CC1` [Example 202, N-(2-chloro-4-pyridinyl)-8-(cyclopropylamino)-6-((trans-4-((3-(3-pyridinyl)-D-alanyl)amino)cyclohexyl)amino)imidazo [1,2-b]pyridazine-3-carboxamide], the IC50 on recombinant CK2A2 (setting [1]) was found to be 1.7 nM; in the test on HCT116, 430 nM; on recombinant CK2A1 (setting [2]), 9.5 nM.

In the case of `N#CCC(=O)N[C@H]1CC[C@H](Nc2cc(NC3CC3)c3ncc(C(=O)Nc4ccnc(Cl)c4)n3n2)CC1` [Example 34, N-(2-chloropyridin-4-yl)-6-((trans)-4-(2-cyanoacetamido)cyclohexylamino)-8-(cyclopropylamino)imidazo[1,2-b]pyridazine-3-carboxamide], the IC50 was 0.8 nM on recombinant CK2A2 (setting [1]), 170 nM in the test with HCT116 and 11.5 nM at recombinant CK2A1 (setting [2]).

Turning to `N[C@H]1CC[C@H](Nc2cc(Nc3ccccc3)c3ncc(C(=O)Nc4ccncn4)n3n2)CC1` [Example 518, 6-((trans-4-aminocyclohexyl)amino)-8-anilino-N-4-pyrimidinylimidazo[1,2-b] pyridazine-3-carboxamide], the half-maximal inhibitory concentration (IC50) is 42 nM at recombinant CK2A2 (setting [1]), 170 nM in the test with HCT116 and 58 nM on recombinant CK2A1 (setting [2]).

For `COC(=O)CN[C@H]1CC[C@H](Nc2cc(NC3CC3)c3ncc(C(=O)Nc4ccncc4F)n3n2)CC1` [Example 523, methyl N-(trans-4-((8-(cyclopropylamino)-3-((3-fluoro-4-pyridinyl)carbamoyl)imidazo[1,2-b]pyridazin-6-yl)amino)cyclohexyl)glycinate], the IC50 in the test on HCT116 was found to be 388 nM; on recombinant CK2A1 (setting [2]), 57 nM.

On to `N[C@H]1CC[C@H](Nc2cc(Nc3ccccc3)c3nccn3n2)CC1` [I(7), reference compound], for which the IC50 at recombinant CK2A2 (setting [3]) and on recombinant CK2A1 (setting [3]) was over 50000 nM in each case.

As for `CCOc1ccc(Nc2cc(N[C@H]3CC[C@H](N)CC3)nn3ccnc23)cc1` [I(1), reference compound], the results for the IC50 at recombinant CK2A2 (setting [3]) and on recombinant CK2A1 (setting [3]) were 10300 nM and over 50000 nM, respectively.

Take `Cc1ccc(Nc2cc(N[C@H]3CC[C@H](N)CC3)nn3ccnc23)nc1` [II(16), reference compound]: the IC50 on recombinant CK2A1 (setting [3]) is over 50000 nM.
